Read-outs that look alike come from different tables or passages of the source.
Key:
[1] = biological target: MMP-9 (Homo sapiens, UniProt P14780); assay: MMP-9 inhibition (thiopeptide or fluorescent peptide substrate); format: biochemical
Description: (§1) The enzyme activity is measured by the rate of the color increase. The thiopeptide substrate is made up fresh as a 20 mM stock in 100% DMSO and the DTNB is dissolved in 100% DMSO as a 100 mM stock and stored in the dark at room temperature. Both the substrate and DTNB are diluted together to 1 mM with substrate buffer (50 mM HEPES pH 7.5, 5 mM CaCl2) before use. The stock of enzyme is diluted with buffer (50 mM HEPES, pH 7.5, 5 mM CaCl2, 0.02% Brij) to the desired final concentration. The buffer, enzyme, vehicle or inhibitor, and DTNB/substrate are added in this order to a 96 well plate (total reaction volume of 200 μl) and the increase in color is monitored spectrophotometrically for 5 minutes at 405 nm on a plate reader and the increase in color over time is plotted as a linear line.
(§2) Alternatively, a fluorescent peptide substrate is used. In this test procedure, the peptide substrate contains a fluorescent group and a quenching group. Upon cleavage of the substrate by an MMP, the fluorescence that is generated is quantitated on the fluorescence plate reader. The assay is run in HCBC assay buffer (50 mM HEPES, pH 7.0, 5 mM Ca^+2, 0.02% Brij, 0.5% Cysteine), with human recombinant MMP-1, MMP-9, or MMP-13. The substrate is dissolved in methanol and stored frozen in 1 mM aliquots. For the assay, substrate and enzymes are diluted in HCBC buffer to the desired concentrations. Compounds are added to the 96 well plate containing enzyme and the reaction is started by the addition of substrate. The reaction is read (excitation 340 nm, emission 444 nm) for 10 min. and the increase in fluorescence over time is plotted as a linear line.
(§3) For either the thiopeptide or fluorescent peptide test procedures, the slope of the line is calculated and represents the reaction rate. The linearity of the reaction rate is confirmed (r^2 >0.85). The mean (x±sem) of the control rate is calculated and compared for statistical significance (p<0.05) with drug-treated rates using Dunnett's multiple comparison test. Dose-response relationships can be generated using multiple doses of drug and IC50 values with 95% CI are estimated using linear regression.

[2] = biological target: TNF-α converting enzyme (TACE) (Homo sapiens, UniProt P78536); assay: TACE inhibition (fluorescent peptidyl substrate); format: biochemical
Description: Using 96-well black microtiter plates, each well receives a solution composed of 10 μL TACE (fmal concentration 1 μg/mL), 70 μL Tris buffer, pH 7.4 containing 10% glycerol (final concentration 10 mM), and 10 μL of test compound solution in DMSO (final concentration 1 μM, DMSO concentration <1%) and incubated for 10 minutes at room temperature. The reaction is initiated by addition of a fluorescent peptidyl substrate (final concentration 100 μM) to each well and then shaking on a shaker for 5 sec.
The reaction is read (excitation 340 nm, emission 420 nm) for 10 min. and the increase in fluorescence over time is plotted as a linear line. The slope of the line is calculated and represents the reaction rate.
as §3, with “The” for “For either the thiopeptide or fluorescent peptide test procedures, the slope of the line is calculated and represents the reaction rate. The”, “generate” for “generated”

[3] = system: THP-1 cells; assay: Human Monocytic THP-1 Cell Differentiation Assay for Soluble Proteins (THP-1 Soluble Protein Assay); format: cell-based
Description: THP-1 cells (from ATCC) are a human monocytic cell line which were obtained from the peripheral blood of a person with acute monocytic leukemia. They can be grown in culture and differentiated into macrophage like cells by stimulation with mitogens.
For the assay, THP-1 cells are seeded from an ATCC stock which was previously grown and frozen back at 5×10^6/ml/vial. One vial is seeded into a T25-flask with 16 mls of RPMI-1640 with glutamax (Gibco) media containing 10% fetal bovine serum, 100 units/ml penicillin, 100 μg/ml streptomycin, and 5×10^-5 M 2-mercapto-ethanol (THP-1 media). Each vial of cells are cultured for about two weeks prior to being used for an assay and then are used for only 4 to 6 weeks to screen compounds. Cells are subcultured on Mondays and Thursdays to a concentration of 1×10^5/ml.
To perform an assay, the THP-1 cells are co-incubated in a 24 well plate with […] of a 24 mg/ml stock of Lipopolysacharide (LPS) (Calbiochem Lot# B13189) at 37° C. in 5% CO2 at a concentration of 1.091×10^6 cells/ml (1.1 ml/well) for a total of 24 hours. At the same time, […] of drug, vehicle or THP-1 media is plated in appropriate wells to give a final volume of 1.2 ml/well. Standard and test compounds are dissolved in DMSO at a concentration of 36 mM and diluted from here to the appropriate concentrations in THP-1 media and added to the wells at the beginning of the incubation period to give final concentrations of […], 300 nM, and 100 nM. Cell exposure to DMSO was limited to 0.1% final concentration. Positive control wells were included in the experiment which had mitogen added but no drug. Vehicle control wells were included as well, which were identical to the positive control wells, except that DMSO was added to give a final concentration of 0.083%. Negative control wells were included in the experiment which had vehicle but no mitogen or drug added to the cells. Compounds can be evaluated for their effect on basal (non-stimulated) shedding of the receptors by replacing the LPS with […] of THP-1 media. Plates are placed into an incubator set at 5% CO2 and at 37° C. After 4 hours of incubation, […] of tissue culture supernatant (TCS) is removed for use in an TNF-α ELISA. Following 24 hours of incubation, […] of TCS is removed and used for analysis in TNF-R p75/80, TNF-R p55/60 and IL-8 ELISAs.
In addition, at the 24 hours timepoint, and the cells for each treatment group are collected by resuspension in 500 μl/well of THP-1 media and transferred into a FACS tube. Two ml/tube of a 0.5 mg/ml stock of propidium iodide (PI) (Boerhinger Mannheim cat. # 1348639) is added. The samples are run on a Becton Dickinson FaxCaliber FLOW cytometry machine and the amount of dye taken up by each cell is measured in the high red wavelength (FL3). Only cells with compromised membranes (dead or dying) can take up PI. The percent of live cells is calculated by the number of cells not stained with PI, divided by the total number of cells in the sample. The viability values calculated for the drug treated groups were compared to the viability value calculated for the vehicle treated mitogen stimulated group ("vehicle positive control") to determine the "percent change from control". This "percent change from control" value is an indicator of drug toxicity.
The quantity of soluble TNF-α, TNF-R p75/80 and TNF-R p55/60 and IL-8 in the TCS of the THP-1 cell cultures are obtained with commercially available ELISAs from R&D Systems, by extrapolation from a standard curve generated with kit standards. The number of cells that either take up or exclude PI are measured by the FLOW cytometry machine and visualized by histograms using commercially available Cytologic software for each treatment group including all controls. […]

[4] = biological target: MMP-13 (Homo sapiens, UniProt P45452); assay: MMP-13 inhibition (thiopeptide or fluorescent peptide substrate); format: biochemical
Description: as §1, §2, §3

[5] = biological target: T1, MMP-1 (Homo sapiens, UniProt P03956); assay: MMP-1 inhibition (thiopeptide or fluorescent peptide substrate); format: biochemical
T1 sequence (P03956 100-469): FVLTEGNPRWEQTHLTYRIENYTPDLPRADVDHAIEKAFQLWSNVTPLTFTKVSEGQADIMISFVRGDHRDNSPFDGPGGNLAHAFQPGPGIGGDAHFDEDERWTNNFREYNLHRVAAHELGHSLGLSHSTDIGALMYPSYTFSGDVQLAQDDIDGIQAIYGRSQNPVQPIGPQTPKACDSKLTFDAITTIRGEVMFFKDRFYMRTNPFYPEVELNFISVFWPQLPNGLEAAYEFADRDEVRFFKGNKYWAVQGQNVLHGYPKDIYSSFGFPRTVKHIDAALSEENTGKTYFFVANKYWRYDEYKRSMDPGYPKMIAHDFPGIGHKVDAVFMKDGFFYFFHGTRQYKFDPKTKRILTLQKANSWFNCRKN
Description: as §1, §2, §3

MMP-9, sequence (P14780 94-707): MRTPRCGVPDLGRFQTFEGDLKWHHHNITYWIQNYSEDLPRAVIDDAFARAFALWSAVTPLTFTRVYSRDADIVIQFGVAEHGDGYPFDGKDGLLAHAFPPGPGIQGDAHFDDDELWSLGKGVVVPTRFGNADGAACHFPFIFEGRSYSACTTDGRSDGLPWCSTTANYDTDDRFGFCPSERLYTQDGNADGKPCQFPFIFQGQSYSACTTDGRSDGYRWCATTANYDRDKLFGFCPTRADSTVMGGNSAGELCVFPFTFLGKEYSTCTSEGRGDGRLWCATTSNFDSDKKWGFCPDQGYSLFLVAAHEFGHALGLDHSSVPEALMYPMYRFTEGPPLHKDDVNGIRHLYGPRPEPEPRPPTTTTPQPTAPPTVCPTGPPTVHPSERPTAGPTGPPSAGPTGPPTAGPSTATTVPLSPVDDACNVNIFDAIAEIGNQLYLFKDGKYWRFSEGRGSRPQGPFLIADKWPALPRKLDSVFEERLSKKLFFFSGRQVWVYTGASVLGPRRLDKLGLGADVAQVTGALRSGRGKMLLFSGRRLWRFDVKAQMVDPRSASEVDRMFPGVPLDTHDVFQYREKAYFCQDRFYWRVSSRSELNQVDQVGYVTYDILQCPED
TNF-α converting enzyme (TACE), sequence (P78536 215-824): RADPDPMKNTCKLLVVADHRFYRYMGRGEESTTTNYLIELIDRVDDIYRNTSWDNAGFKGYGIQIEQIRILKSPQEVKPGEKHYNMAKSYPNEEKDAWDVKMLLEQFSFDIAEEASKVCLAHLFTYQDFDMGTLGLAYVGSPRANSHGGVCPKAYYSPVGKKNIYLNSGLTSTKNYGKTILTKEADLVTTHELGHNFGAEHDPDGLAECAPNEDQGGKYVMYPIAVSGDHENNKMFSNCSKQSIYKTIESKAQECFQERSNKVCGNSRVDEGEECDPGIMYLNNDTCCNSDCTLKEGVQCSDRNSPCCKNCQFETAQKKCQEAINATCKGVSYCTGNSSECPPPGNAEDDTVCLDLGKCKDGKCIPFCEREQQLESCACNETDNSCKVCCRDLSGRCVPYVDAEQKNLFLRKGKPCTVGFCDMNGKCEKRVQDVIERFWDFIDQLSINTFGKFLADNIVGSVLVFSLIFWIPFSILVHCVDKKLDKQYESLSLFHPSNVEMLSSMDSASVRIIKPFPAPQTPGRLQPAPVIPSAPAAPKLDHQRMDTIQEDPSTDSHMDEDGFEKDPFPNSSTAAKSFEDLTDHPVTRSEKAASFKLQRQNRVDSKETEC

SMILES	IC50 [1] [µM]	IC50 [2] [nM]	inhibition at 3 µM [3] [%]	IC50 [4] [µM]	IC50 [5] [µM]	IC50 ([1]; bounds given in uM) [µM]	IC50 ([4]; bounds given in uM) [µM]	IC50 ([5]; bounds given in uM) [µM]
CC#CCOc1ccc(S(=O)(=O)N(C)[C@H]2CCC[C@H]2C(=O)NO)cc1 [Example 30, (1R,2S)-2-[{[4-(2-Butynyloxy)phenyl]sulfonyl}(methyl)amino]N-hydroxycyclopentanecarboxamide]	0.383	14	65	0.308	2.77			
CC#CCOc1ccc(S(=O)(=O)N(C)[C@@H]2CCCC[C@H]2C(=O)NO)cc1 [Example 17, (1R,2R)-2-[{[4-(2-Butynyloxy)phenyl]sulfonyl}(methyl)amino]-N-hydroxycyclohexanecarboxamide]		28	14			> 10	> 10	> 10
CC#CCOc1ccc(S(=O)(=O)NC2C3CCC(C3)C2C(=O)NO)cc1 [Example 38, (1R,2R,3S,4R)-(Cis)-3-({[4-(2-butynyloxy)phenyl]sulfonyl}amino)-N-hydroxybicyclo[2.2.1]heptane-2-carboxamide]		30	9			> 10	~10	> 10
CC#CCOc1ccc(S(=O)(=O)N[C@H]2CCC[C@H]2C(=O)NO)cc1 [Example 26]	5.06	15	23	0.672				> 1
CC#CCOc1ccc(S(=O)(=O)NCCC(=O)NO)cc1 [Example 21, 3-({[4-(2-Butynyloxy)phenyl]sulfonyl}amino)-N-hydroxypropanamide]		145	0					
CC#CCOc1ccc(S(=O)(=O)N[C@H]2CCCC[C@H]2C(=O)NO)cc1 (relative stereo) [Example 32, (Cis)-2-[{[4-(2-butynyloxy)phenyl]sulfonyl}amino)-N-hydroxycyclohexanecarboxamide]		36	29	1.74		~10		> 10
CC#CCOc1ccc(S(=O)(=O)N[C@@H]2CCCC[C@H]2C(=O)NO)cc1 [Example 18, (1R,2R)-2-({[4-(2-Butynyloxy)phenyl]sulfonyl}amino)-N-hydroxycyclohexanecarboxamide]		61	1			> 10	> 10	> 10
CC#CCOc1ccc(S(=O)(=O)N(C)CCC(=O)NO)cc1 [Example 24, 3-({[4-(2-Butynyloxy)phenyl]sulfonyl}(methyl)amino)-N-hydroxypropanamide]		73	9					
CC#CCOc1ccc(S(=O)(=O)N(C)[C@H]2CCCC[C@H]2C(=O)NO)cc1 (relative stereo) [Example 36, (Cis)-2-[{[4-(2-butynyloxy)phenyl]sulfonyl}(methyl)amino]-N-hydroxycyclohexanecarboxamide]	1.32	53	23	1.82	4.23			
CC#CCOc1ccc(S(=O)(=O)N(C)C2C3CCC(C3)C2C(=O)NO)cc1 [Example 42, (1R,2R,3S,4R)-(Cis)-3-({[4-(2-butynyloxy)phenyl]sulfonyl}(methyl)amino)-N-hydroxybicyclo[2.2.1]heptane-2-carboxamide]		62	77	1.14				~10

— US6326516A, “Acetylenic β-sulfonamido and phosphinic acid amide hydroxamic acid TACE inhibitors” (American Cyanamid Company, priority 2000, dated 2001)
